Measured values published in patent US8076487B2, “Pyridone derivative and herbicide” (Kumiai Chemical Industry Co., Ltd., priority 2006, dated 2011).

Experiments:
Format in all cases: in vivo
[1] = tested on: early watergrass (Echinochloa oryzicola Vasing); experiment: Test Example 1: herbicidal effect by soil application to paddy field; details: paddy field soil application; active ingredient 1,000 g per 1 hectare; wettable powder added dropwise to water surface the day after sowing; examined on the 21st day after application
Summary of the method: (§1)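 Under greenhouse conditions, seeds sown on puddled paddy soil in 100 cm2 pots under 3 cm of standing water received the test compound; injury was assessed with a standard scoring scheme three weeks (day 21) after treatment.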

[2] = tested on: heartshape false pickerelweed (Monochoria vaginalis (Burm.f.) C.Presl); experiment: as above; details: paddy field soil application; active ingredient 1,000 g per 1 hectare; wettable powder added dropwise to water surface the day after sowing; examined on the 21st day after application
Summary of the method: as §1

[3] = tested on: Japanese bulrush (Scirpus juncoides Roxb.); experiment: as above; details: paddy field soil application; active ingredient 1,000 g per 1 hectare; wettable powder added dropwise to water surface the day after sowing; examined on the 21st day after application
Summary of the method: as §1

[4] = tested on: green foxtail (Setaria viridis (L.) P. Beauv.); experiment: Test Example 3: herbicidal effect by application to upland field (foliage treatment); details: 14th day after application; for herbicidal effect (index), Green Foxtail: foliage treatment, plants grown two weeks, 1,000 g active ingredient per hectare; for herbicidal effect, Green Foxtail: foliage treatment, 1,000 g active ingredient per 1 hectare, greenhouse
Summary of the method: (§2)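 Foliar spray on two-week-old greenhouse weeds in field soil: wettable powder formulation diluted in water, applied at 1,000 L/ha to give 1,000 g a.i./ha. Damage rated by a fixed scoring standard on day 14 after application.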

[5] = tested on: barnyardgrass (Echinochloa crus-galli (L.) P. Beauv. var. crus-galli); experiment: as above; details: 14th day after application; for herbicidal effect (index), Barnyardgrass: foliage treatment, plants grown two weeks, 1,000 g active ingredient per hectare; for herbicidal effect, Barnyardgrass: foliage treatment, 1,000 g active ingredient per 1 hectare, greenhouse
Summary of the method: as §2

[6] = tested on: slender amaranth (Amaranthus viridis L.); experiment: as above; details: 14th day after application; for herbicidal effect (index), Slender Amaranth: foliage treatment, plants grown two weeks, 1,000 g active ingredient per hectare; for herbicidal effect, Slender Amaranth: foliage treatment, 1,000 g active ingredient per 1 hectare, greenhouse
Summary of the method: as §2

[7] = tested on: velvetleaf (Abutilon theophrasti medicus); experiment: as above; details: 14th day after application; for herbicidal effect (index), Velvetleaf: foliage treatment, plants grown two weeks, 1,000 g active ingredient per hectare; for herbicidal effect, Velvetleaf: foliage treatment, 1,000 g active ingredient per 1 hectare, greenhouse
Summary of the method: as §2

[8] = tested on: green foxtail (Setaria viridis (L.) P. Beauv.); experiment: Test Example 2: herbicidal effect by soil application to upland field; details: soil surface spray, upland field soil, 1,000 g active ingredient per hectare, 21st day after application
Summary of the method: (§3)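 Pots of field soil, seeds sown and soil-covered; wettable powder diluted in water sprayed on soil at 1,000 g a.i./ha (1,000 L/ha). Greenhouse-grown; herbicidal effect rated per standard at 21 days post-application.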

[9] = tested on: barnyardgrass (Echinochloa crus-galli (L.) P. Beauv. var. crus-galli); experiment: as above; details: soil surface spray, upland field soil, 1,000 g active ingredient per hectare, 21st day after application
Summary of the method: as §3

[10] = tested on: slender amaranth (Amaranthus viridis L.); experiment: as above; details: soil surface spray, upland field soil, 1,000 g active ingredient per hectare, 21st day after application
Summary of the method: as §3

[11] = tested on: velvetleaf (Abutilon theophrasti medicus); experiment: as above; details: soil surface spray, upland field soil, 1,000 g active ingredient per hectare, 21st day after application
Summary of the method: as §3

| Structure (SMILES) | herbicidal effect, Echinochloa oryzicola Vasing [1] | herbicidal effect, Monochoria vaginalis (Burm. f.) C. Presl [2] | herbicidal effect, Scirpus juncoides Roxb. [3] | herbicidal effect (index), Green Foxtail [4] | herbicidal effect (index), Barnyardgrass [5] | herbicidal effect (index), Slender Amaranth [6] | herbicidal effect (index), Velvetleaf [7] | herbicidal effect (index), Green Foxtail [8] | herbicidal effect (index), Barnyardgrass [9] | herbicidal effect (index), Slender Amaranth [10] | herbicidal effect (index), Velvetleaf [11] | herbicidal effect, Green Foxtail [4] | herbicidal effect, Barnyardgrass [5] | herbicidal effect, Slender Amaranth [6] | herbicidal effect, Velvetleaf [7] |
| --- | --- | --- | --- | --- | --- | --- | --- | --- | --- | --- | --- | --- | --- | --- | --- |
| CS(=O)(=O)CCn1c(C(F)(F)F)ccc(C(=O)C2=C(O)CCCC2=O)c1=O [I-67] | 5 (90% or more of herbicidal effect and crop phytotoxicity) | 5 (90% or more of herbicidal effect and crop phytotoxicity) | 5 (90% or more of herbicidal effect and crop phytotoxicity) | 5 (90% or more of herbicidal effect and crop phytotoxicity) | 5 (90% or more of herbicidal effect and crop phytotoxicity) | 5 (90% or more of herbicidal effect and crop phytotoxicity) | 5 (90% or more of herbicidal effect and crop phytotoxicity) | 5 (90% or more of herbicidal effect and crop phytotoxicity) | 5 (90% or more of herbicidal effect and crop phytotoxicity) | 5 (90% or more of herbicidal effect and crop phytotoxicity) | 5 (90% or more of herbicidal effect and crop phytotoxicity) |  |  |  |  |
| CC(C)(C)SCn1c(C(F)(F)F)ccc(C(=O)C2=C(O)CCCC2=O)c1=O [I-55] | 5 (90% or more of herbicidal effect and crop phytotoxicity) | 5 (90% or more of herbicidal effect and crop phytotoxicity) | 5 (90% or more of herbicidal effect and crop phytotoxicity) | 5 (90% or more of herbicidal effect and crop phytotoxicity) | 5 (90% or more of herbicidal effect and crop phytotoxicity) | 5 (90% or more of herbicidal effect and crop phytotoxicity) | 5 (90% or more of herbicidal effect and crop phytotoxicity) | 5 (90% or more of herbicidal effect and crop phytotoxicity) | 5 (90% or more of herbicidal effect and crop phytotoxicity) | 5 (90% or more of herbicidal effect and crop phytotoxicity) | 5 (90% or more of herbicidal effect and crop phytotoxicity) |  |  |  |  |
| COc1cc(OC)cc(-n2c(C(F)(F)F)ccc(C(=O)C3=C(O)CCCC3=O)c2=O)c1 [I-101] | 5 (90% or more of herbicidal effect and crop phytotoxicity) | 5 (90% or more of herbicidal effect and crop phytotoxicity) | 5 (90% or more of herbicidal effect and crop phytotoxicity) | 5 (90% or more of herbicidal effect and crop phytotoxicity) | 5 (90% or more of herbicidal effect and crop phytotoxicity) | 5 (90% or more of herbicidal effect and crop phytotoxicity) | 5 (90% or more of herbicidal effect and crop phytotoxicity) | 5 (90% or more of herbicidal effect and crop phytotoxicity) | 5 (90% or more of herbicidal effect and crop phytotoxicity) | 5 (90% or more of herbicidal effect and crop phytotoxicity) | 5 (90% or more of herbicidal effect and crop phytotoxicity) |  |  |  |  |
| CCCS(=O)(=O)Oc1c(C(=O)c2ccc(C(F)(F)F)n(-c3ccc(OC)c(F)c3)c2=O)cnn1C [IV-93] | 5 (90% or more of herbicidal effect and crop phytotoxicity) | 5 (90% or more of herbicidal effect and crop phytotoxicity) | 5 (90% or more of herbicidal effect and crop phytotoxicity) |  |  |  |  | 4 (70 to less than 90% of herbicidal effect and crop phytotoxicity) | 5 (90% or more of herbicidal effect and crop phytotoxicity) | 5 (90% or more of herbicidal effect and crop phytotoxicity) | 5 (90% or more of herbicidal effect and crop phytotoxicity) | 4 (70 to less than 90% of herbicidal effect and crop phytotoxicity) | 4 (70 to less than 90% of herbicidal effect and crop phytotoxicity) | 5 (90% or more of herbicidal effect and crop phytotoxicity) | 4 (70 to less than 90% of herbicidal effect and crop phytotoxicity) |
| O=C1CCCC(O)=C1C(=O)c1ccc(C(F)(F)F)n(-c2cccc(Cl)c2)c1=O [I-74] | 5 (90% or more of herbicidal effect and crop phytotoxicity) | 5 (90% or more of herbicidal effect and crop phytotoxicity) | 5 (90% or more of herbicidal effect and crop phytotoxicity) | 5 (90% or more of herbicidal effect and crop phytotoxicity) | 5 (90% or more of herbicidal effect and crop phytotoxicity) | 5 (90% or more of herbicidal effect and crop phytotoxicity) | 5 (90% or more of herbicidal effect and crop phytotoxicity) | 5 (90% or more of herbicidal effect and crop phytotoxicity) | 5 (90% or more of herbicidal effect and crop phytotoxicity) | 5 (90% or more of herbicidal effect and crop phytotoxicity) | 5 (90% or more of herbicidal effect and crop phytotoxicity) |  |  |  |  |
| Cc1ccsc1-n1c(C(F)(F)F)ccc(C(=O)C2=C(O)CCCC2=O)c1=O [I-149] | 5 (90% or more of herbicidal effect and crop phytotoxicity) | 5 (90% or more of herbicidal effect and crop phytotoxicity) | 5 (90% or more of herbicidal effect and crop phytotoxicity) |  |  |  |  | 5 (90% or more of herbicidal effect and crop phytotoxicity) | 5 (90% or more of herbicidal effect and crop phytotoxicity) | 5 (90% or more of herbicidal effect and crop phytotoxicity) | 5 (90% or more of herbicidal effect and crop phytotoxicity) | 5 (90% or more of herbicidal effect and crop phytotoxicity) | 5 (90% or more of herbicidal effect and crop phytotoxicity) | 5 (90% or more of herbicidal effect and crop phytotoxicity) | 5 (90% or more of herbicidal effect and crop phytotoxicity) |
| Cn1ncc(C(=O)c2ccc(Cl)n(C)c2=O)c1O [IV-243] | 5 (90% or more of herbicidal effect and crop phytotoxicity) | 5 (90% or more of herbicidal effect and crop phytotoxicity) | 5 (90% or more of herbicidal effect and crop phytotoxicity) |  |  |  |  | 3 (50 to less than 70% of herbicidal effect and crop phytotoxicity) | 5 (90% or more of herbicidal effect and crop phytotoxicity) | 5 (90% or more of herbicidal effect and crop phytotoxicity) | 5 (90% or more of herbicidal effect and crop phytotoxicity) | 4 (70 to less than 90% of herbicidal effect and crop phytotoxicity) | 5 (90% or more of herbicidal effect and crop phytotoxicity) | 5 (90% or more of herbicidal effect and crop phytotoxicity) | 5 (90% or more of herbicidal effect and crop phytotoxicity) |
| CCCNn1c(C(F)(F)F)ccc(C(=O)C2=C(O)CCCC2=O)c1=O [I-159] | 5 (90% or more of herbicidal effect and crop phytotoxicity) | 5 (90% or more of herbicidal effect and crop phytotoxicity) | 5 (90% or more of herbicidal effect and crop phytotoxicity) |  |  |  |  | 5 (90% or more of herbicidal effect and crop phytotoxicity) | 5 (90% or more of herbicidal effect and crop phytotoxicity) | 5 (90% or more of herbicidal effect and crop phytotoxicity) | 5 (90% or more of herbicidal effect and crop phytotoxicity) | 5 (90% or more of herbicidal effect and crop phytotoxicity) | 5 (90% or more of herbicidal effect and crop phytotoxicity) | 5 (90% or more of herbicidal effect and crop phytotoxicity) | 5 (90% or more of herbicidal effect and crop phytotoxicity) |
